The target of one experiment is T1, FLT3-D835Y (Homo sapiens, UniProt P36888, D835Y).
T1 construct: purchased Invitrogen PV3967
T1 sequence (P36888 27-993 D835Y): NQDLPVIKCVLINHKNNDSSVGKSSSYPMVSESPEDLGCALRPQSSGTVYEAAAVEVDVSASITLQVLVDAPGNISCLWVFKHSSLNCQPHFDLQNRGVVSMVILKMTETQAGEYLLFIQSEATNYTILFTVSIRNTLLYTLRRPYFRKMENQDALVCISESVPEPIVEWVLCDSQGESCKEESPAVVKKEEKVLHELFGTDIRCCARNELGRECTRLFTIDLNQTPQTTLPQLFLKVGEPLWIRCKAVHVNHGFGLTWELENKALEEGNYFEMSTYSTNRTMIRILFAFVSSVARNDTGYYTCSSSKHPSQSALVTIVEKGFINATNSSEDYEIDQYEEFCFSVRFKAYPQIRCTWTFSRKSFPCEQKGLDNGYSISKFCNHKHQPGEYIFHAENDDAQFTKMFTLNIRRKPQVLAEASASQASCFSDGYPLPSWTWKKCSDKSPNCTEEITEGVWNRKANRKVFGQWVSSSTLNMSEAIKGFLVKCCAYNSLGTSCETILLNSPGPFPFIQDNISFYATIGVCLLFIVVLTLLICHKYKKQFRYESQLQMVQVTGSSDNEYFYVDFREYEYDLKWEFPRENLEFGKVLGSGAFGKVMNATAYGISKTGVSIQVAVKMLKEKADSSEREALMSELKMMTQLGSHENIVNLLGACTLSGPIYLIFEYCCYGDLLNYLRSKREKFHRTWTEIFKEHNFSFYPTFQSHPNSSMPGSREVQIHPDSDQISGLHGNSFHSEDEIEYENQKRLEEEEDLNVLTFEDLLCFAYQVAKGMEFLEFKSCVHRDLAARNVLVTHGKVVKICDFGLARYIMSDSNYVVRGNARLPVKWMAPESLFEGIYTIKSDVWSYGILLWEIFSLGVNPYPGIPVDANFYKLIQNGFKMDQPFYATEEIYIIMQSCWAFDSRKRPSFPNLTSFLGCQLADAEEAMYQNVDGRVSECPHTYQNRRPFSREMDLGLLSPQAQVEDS
Description: FLT3-D835Y recombinant enzyme kinase assay (AlphaScreen). The class given is biochemical. To be noted: 8 pt, GMean. The gist of the method: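 Substrate 30 nM biotin-GG(EEEEY)10EE; ATP 10 μM (FLT3-ITD, FLT3-D835Y) or 100 μM (c-KIT). Detection: AlphaScreen PY20 kit, 10 μg/mL beads, RT 20 + 60 min. Readout 580 nm; IC50.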

Experiment [1] relates to MOLM-14 F691L (endogenous FLT3 ITD and transfected FLT3 F691L). Description: MOLM-14 F691L cell proliferation assay (CellTiter-Glo). Format: cell-based. Conditions: Homo sapiens, MOLM-14, 72 h; 3 d growth, GMean. The gist of the method: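 Three-day proliferation at 37 °C/5% CO2 of FLT3-ITD MOLM-14 lines with D835Y or F691L mutation, seeded 1×10^4 per well. Compounds at eight points, top 1 μM final, 0.2% DMSO. ATP luminescence (CellTiter-Glo) gives IC50.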
A general note: Cellular ATP, detected with luciferase, serves as a proxy for viable cell number.

Take `COCCn1cc(Nc2ncc(-c3ccc(CC(=O)Nc4ccc(C(F)(F)F)nc4)c(F)c3)cn2)cn1` [Compound P-0268, 2-[2-fluoro-4-[2-[[1-(2-methoxyethyl)pyrazol-4-yl]amino]pyrimidin-5-yl]phenyl]-N-[6-(trifluoromethyl)-3-pyridyl]acetamide]: the IC50 (at FLT3-D835Y; in experiment [1]) was 0.0001 to 10 µM throughout.
In the case of `COCCn1cc(Nc2ncc(-c3ccc(CC(=O)Nc4cnc(OC)c(C(F)(F)F)c4)cc3)cn2)cn1` [Compound P-0271, 2-[4-[2-[[1-(2-methoxyethyl)pyrazol-4-yl]amino]pyrimidin-5-yl]phenyl]-N-[6-methoxy-5-(trifluoromethyl)-3-pyridyl]acetamide], the IC50 (at FLT3-D835Y; in experiment [1]) was 0.0001 to 10 µM each time.
For the compound `COCCn1cc(Nc2ncc(-c3ccc(CC(=O)Nc4ccc(C(F)(F)F)nc4)cc3)cn2)cn1` [Compound P-0273, 2-[4-[2-[[1-(2-methoxyethyl)pyrazol-4-yl]amino]pyrimidin-5-yl]phenyl]-N-[6-(trifluoromethyl)-3-pyridyl]acetamide], the IC50 (on FLT3-D835Y; in experiment [1]) was 0.0001 to 10 µM in each case.
Regarding `CCOc1n[nH]c2ncc(-c3ccc(CC(=O)Nc4cnc(OC)c(C(F)(F)F)c4)cc3)cc12` [Compound P-0213, 2-(4-(3-ethoxy-1H-pyrazolo[3,4-b]pyridin-5-yl)phenyl)-N-(6-methoxy-5-(trifluoromethyl)pyridin-3-yl)acetamide], the IC50 (on FLT3-D835Y; in experiment [1]) was 0.0001 to 10 µM each time.
On to `Cn1cnc(Nc2ncc(-c3ccc(CC(=O)Nc4cc(C(F)(F)F)ccn4)cc3F)cn2)c1` [Compound P-0018, 2-[3-fluoro-4-[2-[(1-methylimidazol-4-yl)amino]pyrimidin-5-yl]phenyl]-N-[4-(trifluoromethyl)-2-pyridyl]acetamide], for which the IC50 on FLT3-D835Y is 0.0001 to 10 µM.
For `CCn1cc(Nc2ncc(-c3ccc(CC(=O)Nc4cnc(OC)c(C(F)(F)F)c4)c(F)c3)cn2)cn1` [Compound P-0259, 2-[4-[2-[(1-ethylpyrazol-4-yl)amino]pyrimidin-5-yl]-2-fluoro-phenyl]-N-[6-methoxy-5-(trifluoromethyl)-3-pyridyl]acetamide], the IC50 (on FLT3-D835Y; in experiment [1]) was 0.0001 to 10 µM throughout.
Regarding `CCn1cc(Nc2ncc(-c3ccc(CC(=O)Nc4cnc(C)c(C(F)(F)F)c4)cc3)cn2)cn1` [Compound P-0254, 2-[4-[2-[(1-ethylpyrazol-4-yl)amino]pyrimidin-5-yl]phenyl]-N-[6-methyl-5-(trifluoromethyl)-3-pyridyl]acetamide], the IC50 (at FLT3-D835Y; in experiment [1]) was 0.0001 to 10 µM each time.
The compound `COc1ncc(NC(=O)Cc2ccc(-c3cnc4[nH]c(C#CC(C)(C)C)cc4c3)cc2)cc1C(F)(F)F` [Compound P-0219, 2-[4-[2-(3,3-dimethylbut-1-ynyl)-1H-pyrrolo[2,3-b]pyridin-5-yl]phenyl]-N-[6-methoxy-5-(trifluoromethyl)-3-pyridyl]acetamide] came in with an IC50 in experiment [1] of 0.0001 to 10 µM.
In the case of `Cn1cnc(Nc2ncc(-c3cc(F)c(CC(=O)Nc4cc(C(F)(F)F)ccn4)cc3F)cn2)c1` [Compound P-0020, 2-[2,5-difluoro-4-[2-[(1-methylimidazol-4-yl)amino]pyrimidin-5-yl]phenyl]-N-[4-(trifluoromethyl)-2-pyridyl]acetamide], the IC50 at FLT3-D835Y was 0.0001 to 10 µM.
The compound `COc1cc(-c2cc3cc(-c4ccc(CC(=O)Nc5cncc(C(F)(F)F)c5)cc4F)cnc3[nH]2)ccn1` [Compound P-0200, 2-(3-fluoro-4-(2-(2-methoxypyridin-4-yl)-1H-pyrrolo[2,3-b]pyridin-5-yl)phenyl)-N-(5-(trifluoromethyl)pyridin-3-yl)acetamide] came in with an IC50 in experiment [1] of 0.0001 to 10 µM.
`O=C(Cc1cc(F)c(-c2cnc(Nc3cnn(C(F)F)c3)nc2)cc1F)Nc1cc(C(F)(F)F)ccn1` [Compound P-0021, 2-[4-[2-[[1-(difluoromethyl)pyrazol-4-yl]amino]pyrimidin-5-yl]-2,5-difluoro-phenyl]-N-[4-(trifluoromethyl)-2-pyridyl]acetamide]: the IC50 at FLT3-D835Y fell in the range of 0.0001 to 10 µM.

In general, IC50 refers to the concentration that gives 50% inhibition.
